Test results: patent US20190015400A1, “Antifungal Compositions” (priority 2017, published 2019)

How the values were obtained:
[1] = aqueous assay medium, from DMSO stock
HEK-293 cells = assay: Mammalian cytotoxicity (resazurin cell viability), POS and EBA; type: cell-based, human; conditions: EBA alone at 25 μg/mL
Protocol: (§1) To examine whether the inhibitory effect of the antifungal and antihistamine combinations is specific to fungal cells, the combinations were tested with 4 mammalian cell lines: A459, BEAS-2B, HEK-293, and HaCaT. […] The assays were done in 96-well plates. A549 and BEAS-2B cells were plated at a density of 3×10^3 cells/mL, HaCaT were plated at 2×10^4 cells/mL, and HEK-293 cells were plated at 1×10^4 cells/mL as determined by using a hemacytometer. […] All assays were done in quadruplicate.

BEAS-2B cells = assay: as above; type: cell-based, human; conditions: EBA alone at 25 μg/mL
Protocol: as §1

A549 cells = assay: as above; type: cell-based, human; conditions: EBA alone at 25 μg/mL
Protocol: as §1

HaCaT cells = assay: as above; type: cell-based, human; conditions: EBA alone at 25 μg/mL
Protocol: as §1

[2] = system: C. glabrata ATCC 2001 (strain H); assay: Time-kill assay, POS and EBA; type: cell-based, Candida glabrata; conditions: POS + EBA combination at 1×MIC
Protocol: (§2) The protocol for time-kill assays followed methods previously described with minor modifications. Yeast cultures were grown overnight in YEPD medium at 35° C. with shaking at 200 rpm. A working stock of fungal cells was made by diluting cultures in 1640 medium to an OD600 of 0.125 (˜1×10^6 CFU/mL). From the working stock, 100 μL of cells was added to 4.9 mL of RPMI 1640 medium in sterile culture tubes, making the starting fungal cell concentration ˜1×10^5 CFU/mL. Drug was then added to the fungal cells. […] Treated fungal cultures were incubated in the culture tubes at 35° C. with 200 rpm shaking for 24 h. Samples were aliquoted from the different treatments at regular time points (0, 3, 6, 9, 12, and 24 h) and plated in duplicate. For each time point, cultures were vortexed, 100 μL of culture was aspirated, and 10-fold serial dilutions were made in sterile ddH2O. From the appropriate dilutions, 100 μL of fungal suspension was spread on PDA plates and incubated at 35° C. for 48 h before colony counts were determined. At 24 h, 50 μL of 1 mM resazurin in phosphate buffered saline (PBS) was added to the treatments and incubated at 35° C. with 200 rpm shaking for 2 h in the dark for visual inspection. […] Experiments were performed in duplicate.

[3] = system: C. glabrata ATCC 2001 (strain H); assay: MIC and checkerboard assay, azoles + antihistamines; type: cell-based, Candida glabrata; conditions: in combination with POS
Protocol: Determination of minimum inhibitory concentration (MIC) values. MIC values were recorded for all antifungals and antihistamines in order to determine the concentration range of compounds to be used in the checkerboard assays.
The MIC assays were done using the broth microdilution method as described in CLSI document M27-A3 with minor modifications. Yeast cultures were started by picking a colony from a PDA plate stored at 4° C. The colonies were grown in YEPD medium overnight at 35° C. with shaking at 200 rpm. In a 96-well plate compounds were diluted lengthwise along the plate in serial 2-fold dilutions in the RPMI 1640 medium. The yeast cultures were diluted in RPMI 1640 medium to an OD600 within the range of 0.12 and 0.15 (˜1×10^6 cells/mL). The fungal cells were further diluted by taking 25 μL of fungal cells and adding them to 10 mL of RPMI 1640 medium before adding 100 μL to plate (200 μL total volume). The plates were incubated at 35° C. for 48 h. Visual inspection of the wells for no growth was used to determine the MIC. All compounds were tested in duplicate (TABLES 6 and 7).
Checkerboard assays were done as previously described to determine the fractional inhibitory concentration index (FICI). 2-fold dilutions of the azole drug were made in RPMI 1640 medium lengthwise along the plate. For the antihistamine, 2-fold serial dilutions were made in sterile tubes with RPMI 1640 medium, then aliquoted into the plate. […] The maximal amount was used in the checkerboard assays if complete inhibition was not observed in the MIC assays. Cultures were started by picking a colony from a plate and growing in YEPD medium overnight at 35° C. with shaking at 200 rpm. Cultures were diluted in RPMI 1640 medium to an OD600 between 0.12 and 0.15 (˜1×10^6 cells/mL). Cells were then further diluted by taking 25 μL of cell suspension and adding to 10 mL of RPMI 1640 medium. After the drugs were added to the plate with 100 μL of medium, 100 μL of fungal cells were added. Plates were incubated at 35° C. for 48 h and visual inspection was used to determine wells with no growth. All experiments were carried out in duplicate. The FICI was calculated based on the formula below. The combinational effect of the 2 tested compounds were considered synergistic (SYN) if FICI≤0.5, additive (ADD) if 0.5<FICI≤4, and antagonistic if FICI>4 (TABLES 6-9).

[4] = system: C. albicans ATCC 10231 (strain B); assay: Time-kill assay, POS and EBA; type: cell-based, Candida albicans; conditions: POS + EBA combination at 1×MIC
Protocol: as §2

SMILES | maximal concentration where no precipitation was observed [1] [µg/mL] | cell survival (HEK-293 cells) [%] | cell survival (BEAS-2B cells) [%] | cell survival (A549 cells) [%] | cell survival (HaCaT cells) [%] | CFU/mL through 24 h [2] | FICI [3] | CFU/mL through 24 h [4]
CC(C)(C)c1ccc(C(O)CCCN2CCC(C(O)(c3ccccc3)c3ccccc3)CC2)cc1 (centres unmarked) [TERF, terfenadine] | 42.7 |  |  |  |  |  |  | 
CC(C)(C)c1ccc(C(=O)CCCN2CCC(OC(c3ccccc3)c3ccccc3)CC2)cc1 [EBA, ebastine] |  | ~0 | ~0 | ~0 | ~0 | 10^6 CFU/mL | 0.05 | 10^6 CFU/mL
